Test results taken from ChEMBL document CHEMBL3885861, “Open TG-GATES”.

Organism: Rattus norvegicus
Experiment: Open TG-GATES - Regimen: Single
Type: toxicity, organism-based, Sprague-Dawley
Parameters: regimen Single, gender Male, age 6 weeks
Conditions: in vivo, po, 0 mg/kg, route gavage, dose level Control; for APTT / Bas / Eos / Fbg / Hb / Ht / Lym / MCH / MCHC / MCV / Mono / Neu / PT / Plat / RBC / Ret / WBC: tissue Blood; for KIDNEY_L / KIDNEY_R / KIDNEY_TOTAL: tissue Kidney; for LIVER: tissue Liver; for A/G / ALP / ALT / AST / BUN / CRE / Ca / Cl / DBIL / GLC / IP / K / LDH / Na / PL / RALB / TBIL / TC / TG / TP / gamma-GTP: tissue Plasma

## C=CCO [ALLYL ALCOHOL]
3 h
  TERMINAL_BW: 221.5 g
  APTT: 19.5 s
  Bas: 0%
  Eos: 1%
  Fbg: 226.4 mg/dL
  Hb: 13.4 g/dL
  Ht: 39.2%
  Lym: 73.8%
  MCH: 20.8 pg
  MCHC: 34.3%
  MCV: 60.8 fL
  Mono: 3%
  Neu: 21.8%
  PT: 12.2 s
  Plat: 135.4 x10_4/uL
  RBC: 645 x10_4/ul
  Ret: 6.7%
  WBC: 82.7 x10_2/uL
  KIDNEY_L: 0.9 g
  KIDNEY_R: 0.9 g
  KIDNEY_TOTAL: 1.8 g
  LIVER: 9.9 g
  A/G: 1.4
  ALP: 946 IU/L
  ALT: 41.2 IU/L
  AST: 72.2 IU/L
  BUN: 11.2 mg/dL
  CRE: 0.4 mg/dL
  Ca: 10.8 mg/dL
  Cl: 102 meq/L
  DBIL: 0.3 mg/dL
  GLC: 192.4 mg/dL
  IP: 9.1 mg/dL
  K: 3.9 meq/L
  LDH: 190.8 IU/L
  Na: 140 meq/L
  PL: 176.2 mg/dL
  RALB: 3.2 g/dL
  TBIL: 0.4 mg/dL
  TC: 83.8 mg/dL
  TG: 186.2 mg/dL
  TP: 5.6 g/dL
  gamma-GTP: 1.2 IU/L
6 h
  TERMINAL_BW: 221.2 g
  APTT: 19.3 s
  Bas: 0%
  Eos: 1%
  Fbg: 235.8 mg/dL
  Hb: 13.4 g/dL
  Ht: 38.9%
  Lym: 73.2%
  MCH: 21.4 pg
  MCHC: 34.5%
  MCV: 62.1 fL
  Mono: 4.2%
  Neu: 21.6%
  PT: 12.2 s
  Plat: 124.2 x10_4/uL
  RBC: 626.2 x10_4/ul
  Ret: 7.3%
  WBC: 115.2 x10_2/uL
  KIDNEY_L: 0.9 g
  KIDNEY_R: 1 g
  KIDNEY_TOTAL: 1.9 g
  LIVER: 9.6 g
  A/G: 1.6
  ALP: 1049.2 IU/L
  ALT: 33.2 IU/L
  AST: 62.6 IU/L
  BUN: 10 mg/dL
  CRE: 0.4 mg/dL
  Ca: 10.5 mg/dL
  Cl: 102.8 meq/L
  DBIL: 0.086 mg/dL
  GLC: 199.6 mg/dL
  IP: 8.9 mg/dL
  K: 3.8 meq/L
  LDH: 195.6 IU/L
  Na: 140.8 meq/L
  PL: 146 mg/dL
  RALB: 3.4 g/dL
  TBIL: 0.1 mg/dL
  TC: 74.8 mg/dL
  TG: 66.2 mg/dL
  TP: 5.5 g/dL
  gamma-GTP: 1 IU/L
9 h
  TERMINAL_BW: 217.9 g
  APTT: 18.7 s
  Bas: 0%
  Eos: 1%
  Fbg: 219.6 mg/dL
  Hb: 13.2 g/dL
  Ht: 38.5%
  Lym: 74.8%
  MCH: 20.7 pg
  MCHC: 34.4%
  MCV: 60.2 fL
  Mono: 3.2%
  Neu: 20.4%
  PT: 12.5 s
  Plat: 132.1 x10_4/uL
  RBC: 639.8 x10_4/ul
  Ret: 6.9%
  WBC: 99.3 x10_2/uL
  KIDNEY_L: 1 g
  KIDNEY_R: 0.9 g
  KIDNEY_TOTAL: 1.9 g
  LIVER: 9.1 g
  A/G: 1.5
  ALP: 880.4 IU/L
  ALT: 28.2 IU/L
  AST: 62.2 IU/L
  BUN: 12 mg/dL
  CRE: 0.4 mg/dL
  Ca: 10.4 mg/dL
  Cl: 101.6 meq/L
  DBIL: 0.08 mg/dL
  GLC: 208.2 mg/dL
  IP: 10.7 mg/dL
  K: 3.6 meq/L
  LDH: 158.4 IU/L
  Na: 141 meq/L
  PL: 148.4 mg/dL
  RALB: 3.3 g/dL
  TBIL: 0.1 mg/dL
  TC: 72.8 mg/dL
  TG: 81 mg/dL
  TP: 5.6 g/dL
  gamma-GTP: 1 IU/L
24 h
  TERMINAL_BW: 231.2 g
  APTT: 19.4 s
  Bas: 0%
  Eos: 1%
  Fbg: 235.8 mg/dL
  Hb: 13.1 g/dL
  Ht: 38.5%
  Lym: 78.2%
  MCH: 20.5 pg
  MCHC: 34.1%
  MCV: 60.3 fL
  Mono: 3%
  Neu: 17.2%
  PT: 12.2 s
  Plat: 140 x10_4/uL
  RBC: 640.6 x10_4/ul
  Ret: 6.2%
  WBC: 99.8 x10_2/uL
  KIDNEY_L: 0.9 g
  KIDNEY_R: 1 g
  KIDNEY_TOTAL: 1.9 g
  LIVER: 10.8 g
  A/G: 1.5
  ALP: 963.4 IU/L
  ALT: 35.8 IU/L
  AST: 63.2 IU/L
  BUN: 15.8 mg/dL
  CRE: 0.4 mg/dL
  Ca: 10.8 mg/dL
  Cl: 102 meq/L
  DBIL: 0.098 mg/dL
  GLC: 196.4 mg/dL
  IP: 7.1 mg/dL
  K: 4 meq/L
  LDH: 186.4 IU/L
  Na: 140.8 meq/L
  PL: 147.6 mg/dL
  RALB: 3.3 g/dL
  TBIL: 0.2 mg/dL
  TC: 74.2 mg/dL
  TG: 116 mg/dL
  TP: 5.6 g/dL
  gamma-GTP: 0.8 IU/L
